Like-named read-outs stand apart in the source and are kept apart here.
What was measured:
Assay in all cases: DiscoverX KINOMEscan kinase profiling (468 assays)
Type in all cases: binding
human kinome [1] = biological target: human kinome (Homo sapiens, UniProt Q8N5S9); details: CAMKK1; 100 nM; read-out: Percent Control
How it was run: (§1)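 VIP152 was run in DMSO, alongside a DMSO control. Readout was qPCR of DNA-tagged kinase still bound to bead-immobilized biotinylated kinase ligands after compound competition.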

human kinome [2] = biological target: human kinome (Homo sapiens, UniProt P42345); details: MTOR; 100 nM; read-out: Percent Control
How it was run: as §1

human kinome [3] = biological target: human kinome (Homo sapiens, UniProt Q13131); details: AMPK-alpha1 (Entrez PRKAA1); 100 nM; read-out: Percent Control
How it was run: as §1

human kinome [4] = biological target: human kinome (Homo sapiens, UniProt O14757); details: CHEK1; 100 nM; read-out: Percent Control
How it was run: as §1

human kinome [5] = biological target: human kinome (Homo sapiens, UniProt P28482); details: ERK2 (Entrez MAPK1); 100 nM; read-out: Percent Control
How it was run: as §1

human kinome [6] = biological target: human kinome (Homo sapiens, UniProt P12931); details: kinase SRC (Entrez SRC); compound concentration 1000 nM; read-out: Percent Control
How it was run: as §1

human kinome [7] = biological target: human kinome (Homo sapiens, UniProt Q9H3Y6); details: kinase SRMS (Entrez SRMS); compound concentration 1000 nM; read-out: Percent Control
How it was run: as §1

human kinome [8] = biological target: human kinome (Homo sapiens, UniProt Q8IVW4); details: CDKL3; 100 nM; read-out: Percent Control
How it was run: as §1

human kinome [9] = biological target: human kinome (Homo sapiens, UniProt Q9UEW8); details: kinase STK39 (Entrez STK39); compound concentration 1000 nM; read-out: Percent Control
How it was run: as §1

human kinome [10] = biological target: human kinome (Homo sapiens, UniProt Q99640); details: read-out: Percent Control
Chain of human kinome (Homo sapiens, UniProt Q99640) (Q99640 whole entry): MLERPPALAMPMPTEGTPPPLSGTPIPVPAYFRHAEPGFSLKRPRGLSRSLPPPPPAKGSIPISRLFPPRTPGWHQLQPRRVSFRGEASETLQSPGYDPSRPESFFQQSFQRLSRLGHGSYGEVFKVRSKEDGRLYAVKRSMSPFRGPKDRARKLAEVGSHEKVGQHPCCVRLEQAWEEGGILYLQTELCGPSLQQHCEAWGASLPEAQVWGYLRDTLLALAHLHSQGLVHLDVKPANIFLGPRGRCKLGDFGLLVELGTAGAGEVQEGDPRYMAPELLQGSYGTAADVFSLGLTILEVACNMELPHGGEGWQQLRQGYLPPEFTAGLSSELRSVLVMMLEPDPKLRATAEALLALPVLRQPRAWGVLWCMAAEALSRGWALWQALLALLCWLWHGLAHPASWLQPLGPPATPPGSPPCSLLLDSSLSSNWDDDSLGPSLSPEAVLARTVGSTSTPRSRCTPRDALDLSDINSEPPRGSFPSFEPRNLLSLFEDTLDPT
How it was run: as §1

human kinome [11] = biological target: human kinome (Homo sapiens, UniProt Q07002); details: read-out: Percent Control
Chain of human kinome (Homo sapiens, UniProt Q07002) (Q07002 whole entry): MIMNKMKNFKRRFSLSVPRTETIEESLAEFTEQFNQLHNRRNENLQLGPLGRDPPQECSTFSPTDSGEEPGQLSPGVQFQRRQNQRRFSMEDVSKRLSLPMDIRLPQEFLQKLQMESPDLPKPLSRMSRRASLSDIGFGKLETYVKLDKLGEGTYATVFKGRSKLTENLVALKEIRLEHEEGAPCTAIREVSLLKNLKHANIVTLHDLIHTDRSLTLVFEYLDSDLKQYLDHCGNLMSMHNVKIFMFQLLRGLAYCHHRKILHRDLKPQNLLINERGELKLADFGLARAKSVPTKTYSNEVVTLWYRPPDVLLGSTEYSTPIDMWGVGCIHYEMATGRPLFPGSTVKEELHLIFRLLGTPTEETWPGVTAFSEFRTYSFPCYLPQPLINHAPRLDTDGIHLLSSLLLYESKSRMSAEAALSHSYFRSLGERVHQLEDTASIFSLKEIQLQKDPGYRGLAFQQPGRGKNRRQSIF
How it was run: as §1

human kinome [12] = biological target: human kinome (Homo sapiens, UniProt Q9H2G2); details: kinase SLK (Entrez SLK); compound concentration 1000 nM; read-out: Percent Control
How it was run: as §1

human kinome [13] = biological target: human kinome (Homo sapiens, UniProt P68400); details: CSNK2A1; 100 nM; read-out: Percent Control
How it was run: as §1

human kinome [14] = biological target: human kinome (Homo sapiens, UniProt Q8TDX7); details: read-out: Percent Control
Chain of human kinome (Homo sapiens, UniProt Q8TDX7) (Q8TDX7 whole entry): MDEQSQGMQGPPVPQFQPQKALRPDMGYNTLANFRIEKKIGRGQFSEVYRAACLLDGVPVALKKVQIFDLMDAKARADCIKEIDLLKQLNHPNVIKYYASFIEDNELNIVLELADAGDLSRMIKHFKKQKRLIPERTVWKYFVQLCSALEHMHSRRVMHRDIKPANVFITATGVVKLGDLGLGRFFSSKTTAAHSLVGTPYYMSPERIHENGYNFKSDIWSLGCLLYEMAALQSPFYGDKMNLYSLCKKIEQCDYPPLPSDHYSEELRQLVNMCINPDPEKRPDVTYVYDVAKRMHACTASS
How it was run: as §1

human kinome [15] = biological target: human kinome (Homo sapiens, UniProt P48736); details: read-out: Percent Control
How it was run: as §1

human kinome [16] = biological target: human kinome (Homo sapiens, UniProt P42679); details: CTK (Entrez MATK); 100 nM; read-out: Percent Control
How it was run: as §1

human kinome [17] = biological target: human kinome (Homo sapiens, UniProt Q9NYL2); details: kinase ZAK (Entrez ZAK); compound concentration 1000 nM; read-out: Percent Control
How it was run: as §1

human kinome [18] = biological target: human kinome (Homo sapiens, UniProt P57078); details: kinase RIPK4 (Entrez RIPK4); compound concentration 1000 nM; read-out: Percent Control
How it was run: as §1

human kinome [19] = biological target: human kinome (Homo sapiens, UniProt Q6PHR2); details: kinase ULK3 (Entrez ULK3); compound concentration 1000 nM; read-out: Percent Control
How it was run: as §1

human kinome [20] = biological target: human kinome (Homo sapiens, UniProt O75676); details: compound concentration 1000 nM, read-out: Percent Control
Chain of human kinome (Homo sapiens, UniProt O75676) (O75676 whole entry): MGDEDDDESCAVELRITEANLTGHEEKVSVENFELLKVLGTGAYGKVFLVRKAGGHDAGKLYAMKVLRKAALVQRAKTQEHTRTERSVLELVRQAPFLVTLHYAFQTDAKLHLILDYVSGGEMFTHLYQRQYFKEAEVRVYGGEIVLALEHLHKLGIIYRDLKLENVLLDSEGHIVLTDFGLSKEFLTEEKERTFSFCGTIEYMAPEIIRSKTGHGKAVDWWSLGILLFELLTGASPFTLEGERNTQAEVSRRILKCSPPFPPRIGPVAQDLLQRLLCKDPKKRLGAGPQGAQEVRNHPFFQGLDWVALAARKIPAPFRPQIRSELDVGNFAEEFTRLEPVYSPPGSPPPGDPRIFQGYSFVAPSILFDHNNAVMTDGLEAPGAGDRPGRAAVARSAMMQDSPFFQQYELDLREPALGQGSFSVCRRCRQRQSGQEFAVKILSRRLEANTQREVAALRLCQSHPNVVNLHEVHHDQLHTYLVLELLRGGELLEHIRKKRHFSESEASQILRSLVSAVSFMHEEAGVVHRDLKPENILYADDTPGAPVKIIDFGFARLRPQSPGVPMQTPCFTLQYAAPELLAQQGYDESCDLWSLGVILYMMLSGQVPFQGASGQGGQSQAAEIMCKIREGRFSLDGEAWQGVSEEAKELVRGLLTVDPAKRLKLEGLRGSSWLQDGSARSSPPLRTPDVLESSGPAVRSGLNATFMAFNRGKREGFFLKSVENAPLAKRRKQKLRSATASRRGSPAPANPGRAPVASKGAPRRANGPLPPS
How it was run: as §1

human kinome [21] = biological target: human kinome (Homo sapiens, UniProt Q9UK32); details: compound concentration 1000 nM, read-out: Percent Control
Chain of human kinome (Homo sapiens, UniProt Q9UK32) (Q9UK32 whole entry): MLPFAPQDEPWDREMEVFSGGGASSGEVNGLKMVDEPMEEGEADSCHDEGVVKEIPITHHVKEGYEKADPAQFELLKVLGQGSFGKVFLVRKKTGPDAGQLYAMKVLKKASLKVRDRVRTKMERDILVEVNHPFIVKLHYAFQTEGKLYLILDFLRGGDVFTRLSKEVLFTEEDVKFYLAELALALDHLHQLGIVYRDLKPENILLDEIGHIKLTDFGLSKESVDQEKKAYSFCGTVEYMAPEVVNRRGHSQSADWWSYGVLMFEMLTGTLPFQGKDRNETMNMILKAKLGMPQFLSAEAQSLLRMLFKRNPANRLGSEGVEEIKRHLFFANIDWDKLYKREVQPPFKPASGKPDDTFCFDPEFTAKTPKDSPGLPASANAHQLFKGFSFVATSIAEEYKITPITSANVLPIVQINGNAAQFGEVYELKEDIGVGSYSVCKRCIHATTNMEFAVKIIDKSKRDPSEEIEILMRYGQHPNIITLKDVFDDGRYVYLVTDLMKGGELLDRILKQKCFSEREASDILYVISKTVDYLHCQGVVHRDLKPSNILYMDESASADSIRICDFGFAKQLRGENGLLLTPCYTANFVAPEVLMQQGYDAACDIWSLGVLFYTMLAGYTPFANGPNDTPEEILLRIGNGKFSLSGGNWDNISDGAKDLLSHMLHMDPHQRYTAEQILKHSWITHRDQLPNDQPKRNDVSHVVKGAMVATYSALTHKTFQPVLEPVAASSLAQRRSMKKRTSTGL
How it was run: as §1

human kinome [22] = biological target: human kinome (Homo sapiens, UniProt Q9UPZ9); details: ICK; 100 nM; read-out: Percent Control
How it was run: as §1

human kinome [23] = biological target: human kinome (Homo sapiens, UniProt Q6ZWH5); details: read-out: Percent Control
Chain of human kinome (Homo sapiens, UniProt Q6ZWH5) (Q6ZWH5 whole entry): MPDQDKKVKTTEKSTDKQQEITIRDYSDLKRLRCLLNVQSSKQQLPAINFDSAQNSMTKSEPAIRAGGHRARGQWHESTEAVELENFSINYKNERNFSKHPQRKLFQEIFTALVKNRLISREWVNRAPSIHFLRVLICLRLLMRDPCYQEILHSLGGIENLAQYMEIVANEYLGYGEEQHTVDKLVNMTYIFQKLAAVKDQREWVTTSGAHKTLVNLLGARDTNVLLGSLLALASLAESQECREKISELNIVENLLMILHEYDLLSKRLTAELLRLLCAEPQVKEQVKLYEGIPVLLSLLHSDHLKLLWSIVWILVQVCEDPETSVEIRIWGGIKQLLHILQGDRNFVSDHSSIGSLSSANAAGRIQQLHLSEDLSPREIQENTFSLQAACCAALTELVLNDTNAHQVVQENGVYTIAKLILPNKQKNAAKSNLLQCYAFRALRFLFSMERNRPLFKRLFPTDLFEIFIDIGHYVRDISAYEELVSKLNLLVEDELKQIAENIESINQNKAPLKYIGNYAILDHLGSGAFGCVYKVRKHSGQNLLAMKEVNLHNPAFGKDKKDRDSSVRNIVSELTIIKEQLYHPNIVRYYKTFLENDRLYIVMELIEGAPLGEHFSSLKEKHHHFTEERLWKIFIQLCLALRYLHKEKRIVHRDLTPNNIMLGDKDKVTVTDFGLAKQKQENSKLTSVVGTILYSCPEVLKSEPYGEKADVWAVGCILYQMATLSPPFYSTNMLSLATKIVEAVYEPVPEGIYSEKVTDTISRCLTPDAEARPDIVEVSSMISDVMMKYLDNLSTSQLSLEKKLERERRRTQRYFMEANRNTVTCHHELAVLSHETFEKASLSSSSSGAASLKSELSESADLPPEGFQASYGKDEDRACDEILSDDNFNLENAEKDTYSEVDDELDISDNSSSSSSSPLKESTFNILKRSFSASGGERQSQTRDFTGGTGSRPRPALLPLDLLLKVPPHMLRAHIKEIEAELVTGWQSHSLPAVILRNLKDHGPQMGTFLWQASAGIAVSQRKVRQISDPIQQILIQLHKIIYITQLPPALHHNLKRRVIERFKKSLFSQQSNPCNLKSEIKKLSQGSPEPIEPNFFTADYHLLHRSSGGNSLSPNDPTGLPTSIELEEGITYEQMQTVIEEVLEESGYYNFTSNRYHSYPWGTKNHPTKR
How it was run: as §1

human kinome [24] = biological target: human kinome (Homo sapiens, UniProt P22455); details: FGFR4; 100 nM; read-out: Percent Control
How it was run: as §1

human kinome [25] = biological target: human kinome (Homo sapiens, UniProt P29323); details: EPHB2; 100 nM; read-out: Percent Control
How it was run: as §1

human kinome [26] = biological target: human kinome (Homo sapiens, UniProt P42336, E545K); details: read-out: Percent Control
Chain of human kinome (Homo sapiens, UniProt P42336, E545K) (P42336 whole entry E545K): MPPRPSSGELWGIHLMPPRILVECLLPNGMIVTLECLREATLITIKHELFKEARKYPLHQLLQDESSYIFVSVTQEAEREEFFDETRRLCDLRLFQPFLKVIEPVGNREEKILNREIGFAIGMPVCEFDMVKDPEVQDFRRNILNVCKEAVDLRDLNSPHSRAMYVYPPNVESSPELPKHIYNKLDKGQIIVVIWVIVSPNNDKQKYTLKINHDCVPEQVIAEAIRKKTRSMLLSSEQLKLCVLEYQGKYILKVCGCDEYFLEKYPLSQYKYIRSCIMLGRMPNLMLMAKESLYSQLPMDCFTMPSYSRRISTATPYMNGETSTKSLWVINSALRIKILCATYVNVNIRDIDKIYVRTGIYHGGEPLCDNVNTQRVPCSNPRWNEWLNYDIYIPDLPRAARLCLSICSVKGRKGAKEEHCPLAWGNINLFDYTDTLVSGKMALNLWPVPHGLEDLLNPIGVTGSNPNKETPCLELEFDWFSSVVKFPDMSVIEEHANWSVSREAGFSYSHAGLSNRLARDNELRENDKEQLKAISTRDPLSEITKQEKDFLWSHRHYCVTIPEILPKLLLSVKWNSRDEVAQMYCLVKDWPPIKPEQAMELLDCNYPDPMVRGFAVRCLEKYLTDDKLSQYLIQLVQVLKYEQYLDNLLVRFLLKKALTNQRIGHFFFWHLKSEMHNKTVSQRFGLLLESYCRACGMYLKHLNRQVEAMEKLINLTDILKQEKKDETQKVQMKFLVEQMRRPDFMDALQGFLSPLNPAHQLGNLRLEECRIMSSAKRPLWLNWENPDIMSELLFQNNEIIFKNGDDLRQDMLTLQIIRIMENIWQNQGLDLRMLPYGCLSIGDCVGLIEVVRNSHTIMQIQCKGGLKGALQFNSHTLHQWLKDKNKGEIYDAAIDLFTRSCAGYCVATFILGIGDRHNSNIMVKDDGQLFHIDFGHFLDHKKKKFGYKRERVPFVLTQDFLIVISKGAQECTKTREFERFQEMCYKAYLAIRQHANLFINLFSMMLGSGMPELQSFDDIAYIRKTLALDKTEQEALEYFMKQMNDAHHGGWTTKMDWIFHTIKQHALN
How it was run: as §1

human kinome [27] = biological target: human kinome (Homo sapiens, UniProt O43353); details: kinase RIPK2 (Entrez RIPK2); compound concentration 1000 nM; read-out: Percent Control
How it was run: as §1

human kinome [28] = biological target: human kinome (Homo sapiens, UniProt Q12851); details: MAP4K2; 100 nM; read-out: Percent Control
How it was run: as §1

human kinome [29] = biological target: human kinome (Homo sapiens, UniProt P53779); details: JNK3 (Entrez MAPK10); 100 nM; read-out: Percent Control
How it was run: as §1

`COc1cc(F)ccc1-c1cc(Nc2cc(CS(C)(=N)=O)ccn2)ncc1F` (stereo not shown) [VIP152] gave a remaining binding at 0.1 µM (human kinome [1]) of 89%, a remaining binding at 0.1 µM (human kinome [2]) of 59% and a remaining binding at 0.1 µM (human kinome [3]) of 89%. The remaining binding at 0.1 µM (human kinome [4]) was 100%, the remaining binding at 0.1 µM (human kinome [5]) was 100% and the remaining binding at 1 µM (human kinome [6]) was 83%. For the same molecule, the remaining binding at 1 µM (human kinome [7]) was 83%, the remaining binding at 0.1 µM (human kinome [8]) was 100% and the remaining binding at 1 µM (human kinome [9]) was 92%. For the same molecule, the remaining binding at 0.1 µM (human kinome [10]; PKMYT1, 100 nM) was 100%, the remaining binding at 1 µM (human kinome [10]; kinase PKMYT1 (Entrez PKMYT1), compound concentration 1000 nM) was 45% and the remaining binding at 0.1 µM (human kinome [11]; PCTK3 (Entrez CDK18), 100 nM) was 100%. It also gave a remaining binding at 1 µM (human kinome [11]; kinase PCTK3 (Entrez CDK18), compound concentration 1000 nM) of 84%, a remaining binding at 1 µM (human kinome [12]) of 16% and a remaining binding at 0.1 µM (human kinome [13]) of 100%. The remaining binding at 0.1 µM (human kinome [14]; NEK7, 100 nM) was 100%, the remaining binding at 1 µM (human kinome [14]; kinase NEK7 (Entrez NEK7), compound concentration 1000 nM) was 94% and the remaining binding at 0.1 µM (human kinome [15]; PIK3CG, 100 nM) was 100%. The remaining binding at 1 µM (human kinome [15]; kinase PIK3CG (Entrez PIK3CG), compound concentration 1000 nM) was 97%, the remaining binding at 0.1 µM (human kinome [16]) was 95% and the remaining binding at 1 µM (human kinome [17]) was 79%. It also gave a remaining binding at 1 µM (human kinome [18]) of 49%, a remaining binding at 1 µM (human kinome [19]) of 85% and a remaining binding at 1 µM (human kinome [20]; kinase RPS6KA4(Kin.Dom.1-N-terminal) (Entrez RPS6KA4)) of 85%. It also gave a remaining binding at 1 µM (human kinome [20]; kinase RPS6KA4(Kin.Dom.2-C-terminal) (Entrez RPS6KA4)) of 71%, a remaining binding at 1 µM (human kinome [21]; kinase RSK4(Kin.Dom.1-N-terminal) (Entrez RPS6KA6)) of 94% and a remaining binding at 1 µM (human kinome [21]; kinase RSK4(Kin.Dom.2-C-terminal) (Entrez RPS6KA6)) of 89%. It also gave a remaining binding at 0.1 µM (human kinome [22]) of 95%, a remaining binding at 0.1 µM (human kinome [23]; NEK10, 100 nM) of 97% and a remaining binding at 1 µM (human kinome [23]; kinase NEK10 (Entrez NEK10), compound concentration 1000 nM) of 77%. For the same molecule, the remaining binding at 0.1 µM (human kinome [24]) was 100%, the remaining binding at 0.1 µM (human kinome [25]) was 100% and the remaining binding at 0.1 µM (human kinome [26]; PIK3CA(E545K), 100 nM) was 92%. The remaining binding at 1 µM (human kinome [26]; kinase PIK3CA(E545K) (Entrez PIK3CA), compound concentration 1000 nM) was 93%, the remaining binding at 1 µM (human kinome [27]) was 49% and the remaining binding at 0.1 µM (human kinome [28]) was 80%. For the same molecule, the remaining binding at 0.1 µM (human kinome [29]) was 94%.
